Experimental data from PMC3948889, “The Effects of LPM570065, a Novel Triple Reuptake Inhibitor, on Extracellular Serotonin, Dopamine and Norepinephrine Levels in Rats” (PLoS ONE, 2014).
Where two headings read alike, the source gives them in different places.

Experiments:
[1] = test system: immobility time in the forced swim test; conditions: tested 0.5, 1, 2 and 4 h post-dosing
Protocol: Forced swim test was used to measure the depression-like behavior in rats after acute and chronic drug treatment. Animals were randomly divided into six groups. The animals in Groups 1, 2 and 3 were used for acute treatment, and the animals in Groups 4, 5 and 6 were used for chronic treatment (once a day for 14 days). […] The entire test was performed in 2 consecutive days: a 15-min pretest session on day 1 followed by a 5-min test session the next day. On the pretest day, rats were individually forced to swim for 15 min in a plastic cylinder (diameter 22 cm, height 46 cm) containing water (25±1°C) with a depth of 30 cm. On the test day, rats were placed in the cylinder again for a 5-min test trial at 0.5, 1, 2 and 4 h post-dosing (n = 10 rats per time point in each group). The total duration of immobilization was recorded. The criterion for immobilization was vertical floating in the water and movements necessary to keep the head above the water. After the test, animals were removed and dried with towels before returning to their home cage.

[2] = test system: extracellular DA levels in the rat striatum; test: microdialysis: extracellular DA levels in the rat striatum
[3] = test system: extracellular NE levels in the rat striatum; test: microdialysis: extracellular NE levels in the rat striatum
[4] = test system: extracellular 5-HT levels in the rat striatum; test: microdialysis: extracellular 5-HT levels in the rat striatum
[5] = test system: immobility time in the forced swim test; conditions: without significantly altering locomotor activity, cited from earlier work
[6] = chronic oral suspension 0.06 mmol·kg^−1·day^−1 for 14 days
[7] = acute oral administration (oral solution, oral suspension 0.06 mmol·kg^−1)

CN(C)CC(c1ccc(O)cc1)C1(O)CCCCC1 (stereo not shown) [desvenlafaxine]
immobility time in the forced swim test vs. vehicle ([1]; acute oral suspension 0.06 mmol·kg^−1): only significantly reduced the immobility time at 1 h
immobility time in the forced swim test vs. vehicle [1, 6]: significantly reduced the immobility time
effect on extracellular DA levels ([2]; acute, oral administration or intravenous administration): did not significantly alter the extracellular DA levels
effect on extracellular DA levels [2, 6]: did not significantly alter the extracellular DA levels
effect on extracellular NE levels vs. relative vehicle ([3]; acute intravenous administration 0.04 mmol·kg^−1): marked and significant increases
effect on extracellular NE levels vs. relative vehicle [3, 7]: slight but significant increases
extracellular NE peak value (% of basal) ([3]; chronic oral suspension 0.06 mmol·kg^−1·day^−1 for 14 days, at 60 min): 139±9%
extracellular 5-HT levels increased to (% of basal) ([4]; acute intravenous solution 0.04 mmol·kg^−1, after the initial 90 min decrease, then returned to basal): 162±15%
decrease in extracellular 5-HT levels ([4]; acute intravenous solution 0.04 mmol·kg^−1, during the first 90 min post-dosing): 90%
effect on extracellular 5-HT levels vs. relative vehicle [4, 7]: slight but significant increases
increase in 5-HT AUC0–240 min value of the vehicle group [4, 6]: 187±25%

CC(NC(C)(C)C)C(=O)c1cccc(Cl)c1 (stereo not shown) [bupropion]
immobility time in the forced swim test ([5]; 10 mg/kg): reduce the immobility time

CN1Cc2c(N)cccc2C(c2ccccc2)C1 (stereo not shown) [nomifensine]
immobility time in the forced swim test ([5]; 2.5 mg/kg): reduce the immobility time
